Laboratory results published in patent US20200253929A1, “TREATMENT OF EPILEPSY” (priority 2017, published 2020).

Assays:
[1] = system: PTZ-induced seizures in zebrafish larvae; experiment: Zebrafish PTZ seizure model, behavioral analysis; type: in vivo, Danio rerio; settings: for PTZ-induced seizures (seizure-like behavior): vs VHC+PTZ
Method: To investigate whether the isolated compounds display antiseizure activity, they were tested in the zebrafish PTZ seizure model after both an acute (2 hours) and chronic (18 hours) incubation time at their maximum tolerated concentration (MTC) (Table 1, FIG. 1).
In case no MTC was reached, 100 μg/mL was used as the test concentration. In line with studies previously reported [Baraban et al. (2005) Neurosci 131, 759-768; Afrikanova et al. (2013) PLoS One 8, e54166], addition of the GABAA-receptor antagonist PTZ to the swimming water of 7 days post-fertilization (dpf) zebrafish larvae strongly elevated larval locomotion (p≤0.001) (FIGS. 2 and 3) as a result of induced seizures (or seizure-like behavior) that were recognized as typical high-speed swimming, whirlpool-like circling, clonus-like seizures, and loss of posture, as previously described in Baraban et al cited above.
Experimental procedure was described in Afrikanova et al.(2013) PLoS One 8, e54166 and Orellana-Paucar et al. (2012) Epilepsy Behav 24, 14-22. In brief, a single 7 dpf larva (in case of 2 hours incubation) or 6 dpf larva (in case of 18 hours incubation) was placed in each well of a 96-well plate and treated with either VHC (1% DMSO) or compound (1% DMSO) in a 100 μL volume. Larvae were incubated in dark for 2 or 18 hours at 28° C., whereafter 100 μL of either VHC (embryo medium) or 40 mM PTZ (dissolved in embryo medium, 20 mM working concentration) was added to each well. Next, within 5 min the 96-well plate was placed in an automated tracking device (ZebraBox Viewpoint, France) and larval behavior was video recorded for 30 min. The complete procedure was performed in dark conditions using infrared light. Total locomotor activity was recorded by ZebraLab software (Viewpoint, France) and expressed in actinteg units, which is the sum of pixel changes detected during the defined time interval (5 min). Larval behavior was depicted as mean actinteg units/5 min during the 30 min recording period and over 5 min time intervals. Data are expressed as mean±SD or as mean ±SEM when the means of independent experiments were pooled.

[2] = system: PTZ-induced seizures in zebrafish larvae; experiment: Zebrafish PTZ seizure model, behavioral analysis; type: in vivo, Danio rerio; settings: lower concentrations (MTC/2, MTC/4), 2 hours incubation
THLE2 cells = experiment: Cell viability MTT assay, THLE2 cells; type: cell-based, human; settings: 24 h incubation; for IC50: read-out: Cytotoxicity THLE2 cells IC50
Method: Protocol was based on literature [Patel and Patel. (2011) J. App. Pharm. Sci 1, 167-171]. Three cell lines were used: a) Hep G2 (HB-8065), a well-differentiated human hepatocellular carcinoma cell line, b) THLE-2, human liver epithelial cells transformed with SV40 large T-antigen and c) SHSYSY, a thrice-cloned sub-line of a human metastatic bone tumor. Cells were seeded at a concentration of 1×10^4 cells/well in 200 μL culture medium and incubated at 37° C. in 5% CO2 using 96-well plates for 24 h. Next, the medium was replaced with medium complemented with test compounds. After another 24 h incubation, the medium was replaced by 100 μL of a MTT (3-(4,5-dimethylthiazol-2-yl)-2,5-diphenyltetrazolium bromide) solution (5 mg/mL in PBS and diluted at 0.5 mg/mL in MEM without phenol red). The plates were gently shaken and incubated for 3 hours at 37° C. in a 5% CO2 incubator. The supernatant was removed and 100 μL of 100% DMSO was added. The plates were gently shaken to solubilize the formed formazan. The absorbance was measured using a multireader (Victor2 (Wallac)) at a wavelength of 570 nm.

CYP3A4 = molecular target: T1, CYP3A4 (Homo sapiens, UniProt P08684); experiment: CYP450 enzyme inhibition assay, CYP3A4; type: in vitro ADME; settings: human liver microsomes; for IC50: testosterone probe
T1 construct: containing Human Liver Microsomes (HLM) (0.5 mg/mL); from tissue; host or cells: human liver microsomes
Method: Protocol was based on literature [Perez-Del Palacio et al. (2017) Front Pharmacol 8, 202]. Assessment of CYP450 inhibition was conducted in 96-well plate format at 37° C. Test compounds were dissolved in DMSO/acetonitrile (2 μL) and diluted in 98 μL NADPH solution (2 mM). Reactions were started by addition of 100 μL potassium phosphate buffer (200 mM, pH 7.4) containing Human Liver Microsomes (HLM) (0.5 mg/mL). Probe reactions for CYP3A4, CYP2D6 and CYP2C9 were conducted with 50 μM testosterone, 22 μM dextromethorphan and 10 μM diclofenac for 15 min. Reactions were terminated with the addition of a quench solution (90 μL) of acetonitrile containing internal standards for LC-MS/MS determination (60 ppb cortisone, 100 ppb 4′-hydroxydiclofenac 13C6, 60 ppb levallorphan).

Kinetic solubility assay = type: physicochemical; settings: for Kinetic solubility: 2 h incubation, absorbance 620 nm
Method: Protocol was based on literature [Perez et al. (2015) J Biomol Screen 20, 254-264]. The kinetic solubility assay was conducted in 96-well, flat-bottom, transparent polystyrene plates (Costar 9018, Corning, Tewksbury, Mass.). Six two-fold serial dilutions of an initial 10 mM test compound solution were prepared in DMSO. After a 2 h incubation period (to avoid missing slow precipitation) absorbance was measured at 620 nm by an EnVision multilabel plate reader. The kinetic solubility was estimated from the concentration of test compound that produced an increase in absorbance above the background levels (i.e. 1% DMSO in buffer).

Cav1.2 channel = molecular target: T2, Cav1.2 channel (Homo sapiens, UniProt Q13936); experiment: Cardiotoxicity fluorescence-based assay, Cav1.2 channel; type: cell-based; settings: HEK293 cells
T2 construct: expressed in transfected cells; host or cells: HEK293
Method: Fluorescence-based assays were performed using HEK293 cell lines that stably express the Nav1.5-channel, Cav1.2-channel or hERG K+-channel, using FMP Red Dye (Molecular Devices), calcium-sensitive fluorescent dye Fluo-4 (Invitrogen) and FIuxOR™ reagent (Invitrogen), respectively, and a FLIPR Tetra High-Throughput Cellular Screening System (Molecular Devices), according to manufacturer's protocols (Molecular Devices). Tetrodotoxin (TTX), israpidine and nicarpidine, and astemizole and haloperidol were used as standard sodium channel, calcium channel, and hERG channel blockers. Data were analyzed using Genedata Screener.

T1 sequence (P08684 whole entry): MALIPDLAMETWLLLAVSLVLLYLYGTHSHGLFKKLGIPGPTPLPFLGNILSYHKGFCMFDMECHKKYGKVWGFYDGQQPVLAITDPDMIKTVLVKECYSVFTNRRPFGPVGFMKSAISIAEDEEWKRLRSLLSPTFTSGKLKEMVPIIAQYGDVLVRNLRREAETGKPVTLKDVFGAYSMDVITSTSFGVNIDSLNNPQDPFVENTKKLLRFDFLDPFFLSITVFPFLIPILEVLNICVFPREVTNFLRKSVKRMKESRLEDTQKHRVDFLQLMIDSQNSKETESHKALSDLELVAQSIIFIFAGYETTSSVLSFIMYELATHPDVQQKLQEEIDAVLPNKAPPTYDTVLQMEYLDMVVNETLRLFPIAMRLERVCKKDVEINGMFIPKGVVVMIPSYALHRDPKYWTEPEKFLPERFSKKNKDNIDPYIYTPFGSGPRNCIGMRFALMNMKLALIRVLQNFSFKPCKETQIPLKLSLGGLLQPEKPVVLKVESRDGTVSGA
T2 sequence (P54289 25-1103): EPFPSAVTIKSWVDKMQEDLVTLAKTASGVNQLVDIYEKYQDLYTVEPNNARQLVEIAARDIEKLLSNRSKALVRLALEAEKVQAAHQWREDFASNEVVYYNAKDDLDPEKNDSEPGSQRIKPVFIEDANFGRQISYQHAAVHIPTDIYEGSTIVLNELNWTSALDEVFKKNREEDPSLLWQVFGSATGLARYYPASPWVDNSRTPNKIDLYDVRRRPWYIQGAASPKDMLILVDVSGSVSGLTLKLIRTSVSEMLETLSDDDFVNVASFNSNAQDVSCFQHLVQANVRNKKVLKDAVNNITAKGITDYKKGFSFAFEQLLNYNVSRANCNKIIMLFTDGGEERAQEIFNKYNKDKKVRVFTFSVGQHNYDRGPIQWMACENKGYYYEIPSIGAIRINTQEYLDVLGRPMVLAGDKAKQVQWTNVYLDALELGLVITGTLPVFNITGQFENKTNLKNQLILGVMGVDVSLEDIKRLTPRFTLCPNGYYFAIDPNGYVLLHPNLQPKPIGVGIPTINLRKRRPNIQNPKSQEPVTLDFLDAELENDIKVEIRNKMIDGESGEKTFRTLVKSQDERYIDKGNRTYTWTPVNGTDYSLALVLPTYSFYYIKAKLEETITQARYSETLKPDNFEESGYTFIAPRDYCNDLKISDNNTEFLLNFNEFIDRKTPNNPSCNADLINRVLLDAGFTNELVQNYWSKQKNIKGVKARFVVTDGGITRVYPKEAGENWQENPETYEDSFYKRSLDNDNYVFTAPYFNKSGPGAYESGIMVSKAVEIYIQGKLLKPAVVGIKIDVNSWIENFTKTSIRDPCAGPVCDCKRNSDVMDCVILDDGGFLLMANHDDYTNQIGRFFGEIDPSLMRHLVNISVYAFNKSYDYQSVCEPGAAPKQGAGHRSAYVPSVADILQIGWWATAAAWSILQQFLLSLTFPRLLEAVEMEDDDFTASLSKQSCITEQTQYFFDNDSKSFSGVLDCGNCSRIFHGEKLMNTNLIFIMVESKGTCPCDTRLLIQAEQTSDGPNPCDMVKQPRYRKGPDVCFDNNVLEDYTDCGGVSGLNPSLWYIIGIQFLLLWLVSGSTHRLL
T2 sequence (Q08289 whole entry, further chain): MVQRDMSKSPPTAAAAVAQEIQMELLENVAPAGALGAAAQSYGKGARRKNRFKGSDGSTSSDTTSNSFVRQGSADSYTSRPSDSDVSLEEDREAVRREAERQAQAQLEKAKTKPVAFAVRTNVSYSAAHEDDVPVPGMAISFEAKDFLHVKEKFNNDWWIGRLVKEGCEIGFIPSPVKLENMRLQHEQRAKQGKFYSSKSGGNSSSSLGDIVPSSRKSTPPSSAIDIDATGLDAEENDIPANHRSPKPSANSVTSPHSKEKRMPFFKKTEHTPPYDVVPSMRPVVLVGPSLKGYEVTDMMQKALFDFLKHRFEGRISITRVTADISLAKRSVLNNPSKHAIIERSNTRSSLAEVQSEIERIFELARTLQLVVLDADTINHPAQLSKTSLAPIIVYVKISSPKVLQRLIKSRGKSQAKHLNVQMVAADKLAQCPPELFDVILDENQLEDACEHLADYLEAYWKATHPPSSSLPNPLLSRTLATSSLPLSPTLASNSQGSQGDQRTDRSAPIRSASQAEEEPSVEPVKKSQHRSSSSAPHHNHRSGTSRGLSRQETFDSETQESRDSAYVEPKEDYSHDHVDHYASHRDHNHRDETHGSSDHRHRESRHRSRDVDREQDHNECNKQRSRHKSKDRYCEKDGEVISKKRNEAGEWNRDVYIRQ
T2 sequence (Q13936 whole entry): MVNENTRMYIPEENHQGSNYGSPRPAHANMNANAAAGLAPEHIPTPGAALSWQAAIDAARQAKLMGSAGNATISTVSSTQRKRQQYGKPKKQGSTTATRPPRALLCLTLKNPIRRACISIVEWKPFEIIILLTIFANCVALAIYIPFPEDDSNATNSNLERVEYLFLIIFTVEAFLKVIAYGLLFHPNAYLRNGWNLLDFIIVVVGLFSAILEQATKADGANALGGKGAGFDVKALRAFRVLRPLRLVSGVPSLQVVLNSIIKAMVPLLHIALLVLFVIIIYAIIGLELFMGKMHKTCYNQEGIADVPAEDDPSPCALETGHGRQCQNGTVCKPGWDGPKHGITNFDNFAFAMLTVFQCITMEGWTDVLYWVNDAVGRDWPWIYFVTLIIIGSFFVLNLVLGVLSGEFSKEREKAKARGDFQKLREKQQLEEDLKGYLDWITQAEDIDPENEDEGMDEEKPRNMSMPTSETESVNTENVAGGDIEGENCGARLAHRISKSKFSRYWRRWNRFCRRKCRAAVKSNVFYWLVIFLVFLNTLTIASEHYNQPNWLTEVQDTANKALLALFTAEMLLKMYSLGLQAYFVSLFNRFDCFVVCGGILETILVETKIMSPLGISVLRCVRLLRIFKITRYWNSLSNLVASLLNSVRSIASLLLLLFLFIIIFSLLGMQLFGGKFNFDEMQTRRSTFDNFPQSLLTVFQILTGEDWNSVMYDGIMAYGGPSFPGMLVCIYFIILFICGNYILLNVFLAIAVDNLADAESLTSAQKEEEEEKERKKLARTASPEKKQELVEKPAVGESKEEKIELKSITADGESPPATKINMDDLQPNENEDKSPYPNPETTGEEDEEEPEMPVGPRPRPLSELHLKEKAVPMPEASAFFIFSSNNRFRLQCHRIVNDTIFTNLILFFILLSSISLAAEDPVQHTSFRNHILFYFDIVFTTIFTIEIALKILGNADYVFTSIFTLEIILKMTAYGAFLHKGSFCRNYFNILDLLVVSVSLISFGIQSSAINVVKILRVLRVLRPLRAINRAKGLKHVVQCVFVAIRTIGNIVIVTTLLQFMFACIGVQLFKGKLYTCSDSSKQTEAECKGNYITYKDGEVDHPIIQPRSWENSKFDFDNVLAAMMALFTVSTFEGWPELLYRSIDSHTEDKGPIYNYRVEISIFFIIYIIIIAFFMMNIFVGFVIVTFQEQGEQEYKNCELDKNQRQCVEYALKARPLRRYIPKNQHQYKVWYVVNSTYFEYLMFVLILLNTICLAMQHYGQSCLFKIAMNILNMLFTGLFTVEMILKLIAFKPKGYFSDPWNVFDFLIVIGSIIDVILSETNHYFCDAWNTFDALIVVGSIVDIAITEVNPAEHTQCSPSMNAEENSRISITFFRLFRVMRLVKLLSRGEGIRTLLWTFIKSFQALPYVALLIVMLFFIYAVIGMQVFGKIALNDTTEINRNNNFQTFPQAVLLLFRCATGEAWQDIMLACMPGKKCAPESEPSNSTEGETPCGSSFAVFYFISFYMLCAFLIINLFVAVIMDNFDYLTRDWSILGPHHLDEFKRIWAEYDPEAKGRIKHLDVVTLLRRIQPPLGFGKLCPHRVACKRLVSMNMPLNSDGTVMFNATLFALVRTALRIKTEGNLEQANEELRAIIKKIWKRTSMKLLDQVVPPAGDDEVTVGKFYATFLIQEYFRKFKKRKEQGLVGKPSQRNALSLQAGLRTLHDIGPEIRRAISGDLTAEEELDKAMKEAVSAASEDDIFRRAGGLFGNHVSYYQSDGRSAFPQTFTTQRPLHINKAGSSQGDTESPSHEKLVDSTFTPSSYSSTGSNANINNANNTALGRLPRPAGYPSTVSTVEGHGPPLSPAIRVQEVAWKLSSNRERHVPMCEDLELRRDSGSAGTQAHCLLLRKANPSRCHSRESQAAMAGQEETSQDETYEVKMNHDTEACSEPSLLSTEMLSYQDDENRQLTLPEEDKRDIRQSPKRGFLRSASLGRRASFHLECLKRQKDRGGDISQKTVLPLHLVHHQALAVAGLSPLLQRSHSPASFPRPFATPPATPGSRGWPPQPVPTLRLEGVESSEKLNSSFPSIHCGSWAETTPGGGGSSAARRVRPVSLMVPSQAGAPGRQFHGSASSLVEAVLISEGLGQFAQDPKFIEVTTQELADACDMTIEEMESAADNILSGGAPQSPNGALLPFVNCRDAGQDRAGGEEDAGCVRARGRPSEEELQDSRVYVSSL

Row | SMILES | PTZ-induced seizure behavior, concentration-response retest ([1]; at MTC, 2 hours incubation, 30 min recording, three independent experiments) | PTZ-induced seizures (seizure-like behavior) ([1]; at MTC, 2 hours of compound exposure) | PTZ-induced seizure behavior, concentration-response retest [2] | Cytotoxicity THLE2 cells, effect (THLE2 cells) | IC50 (THLE2 cells) [µM] | CYP3A4, effect (CYP3A4) | IC50 (CYP3A4) [µM] | Kinetic solubility, rating (Kinetic solubility assay) | Kinetic solubility (Kinetic solubility assay) [µM] | Cardiotoxicity Cav1.2 channel, effect (Cav1.2 channel) | IC50 (Cav1.2 channel) [µM] | PTZ-induced seizure behavior, concentration-response retest ([1]; MTC, MTC/2, MTC/4, optimal incubation time, 30 min recording and 5 min intervals) | PTZ-induced seizures (seizure-like behavior) ([1]; at MTC, 18 hours of compound exposure)
1 | CCc1ccc(C2=C(C)C(=O)C3(O2)C(=O)NC(OC)(C(=O)c2ccccc2)C3O)o1 (stereo not drawn) [azaspirofuran A] | lowered PTZ-induced seizure behavior to the same extent as before | significantly lowered PTZ-induced seizures | No antiseizure activity | Weak | > 50 | No effect | > 88 | Acceptable | >100 | No effect | > 50 |  | 
2 | CC/C=C\[C@H](O)[C@H](O)C1=C(C)C(=O)[C@]2(O1)C(=O)N[C@](OC)(C(=O)c1ccccc1)[C@H]2O [pseurotin A2] |  |  |  | Weak | > 50 | No effect | > 88 | Acceptable | >100 | No effect | > 50 | concentration-dependent activity | significantly lowered PTZ-induced seizures
